Here are results for five compounds from the supplement of paper PMC11368000.

Bounds are passed on as bounds.

Common to all, as to details: exposure time: 90 min
One assay concerns 1083 (donor line of iPSC-derived cardiomyocytes). As to the kind of experiment: POD (EC05) for decrease in beat frequency (negative chronotrope) vs vehicle; higher = less potent (higher point of departure). As for the experimental part:
(§1)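 Human iPSC-derived cardiomyocytes from 16 donors were exposed for 90 min at 37 °C to each PFAS at 0.1, 1, 10 and 100 µM in 0.5% DMSO, 384-well plates. Kinetic Ca2+ flux (FLIPR) and Hoechst nuclei counts were normalised to vehicle wells and fitted with a hierarchical Bayesian Hill model to give donor-specific PODs: EC05 for beat-rate increase or decrease and for decay-to-rise ratio increase (QT proxy), EC95 for peak-frequency loss (asystole), EC10 for total cell number loss. 0.03 µM is the lower bound.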

The test system of assay [1] is 11235 (donor line of iPSC-derived cardiomyocytes). Described as above. As for the experimental part: as §1
The next assay concerns 1309 (donor line of iPSC-derived cardiomyocytes). The assay is described as above. As for the experimental part: as §1
Assay [2] relates to 1368 (donor line of iPSC-derived cardiomyocytes). The assay is described as above. As for the experimental part: as §1
A further assay deals with 1392 (donor line of iPSC-derived cardiomyocytes). The description is as above. As for the experimental part:
as §1

The subject of assay [3] is 1434 (donor line of iPSC-derived cardiomyocytes). The assay is described as above. As for the experimental part:
as §1

The subject of another assay is 1516 (donor line of iPSC-derived cardiomyocytes). Described as above. As for the experimental part:
as §1

The subject of a further assay is 1518 (donor line of iPSC-derived cardiomyocytes). The assay is described as above. As for the experimental part: as §1
For a further assay, the system named is 1531 (donor line of iPSC-derived cardiomyocytes). The description is as above. As for the experimental part: as §1
For a further assay, the system named is 1535 (donor line of iPSC-derived cardiomyocytes). The assay is described as above. As for the experimental part: as §1
The subject of assay [4] is 1565 (donor line of iPSC-derived cardiomyocytes). The description is as above. As for the experimental part:
as §1

For the next assay, the system named is 20032 (donor line of iPSC-derived cardiomyocytes). The assay is described as above. As for the experimental part:
as §1

For another assay, the system named is 20084 (donor line of iPSC-derived cardiomyocytes). The description is as above. As for the experimental part:
as §1

The test system of another assay is 30145 (donor line of iPSC-derived cardiomyocytes). The assay is described as above. As for the experimental part: as §1
Assay [5] concerns 30171 (donor line of iPSC-derived cardiomyocytes). The description is as above. As for the experimental part:
as §1

For assay [6], the system named is 11235. In words: POD (EC05) for increase in Ca2+ transient decay-to-rise ratio (QT prolongation) vs vehicle; higher = less potent (higher point of departure). A digest of the protocol: (§2)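 Ca2+ flux in human iPSC-derived cardiomyocytes from 16 donors was recorded on a FLIPR Tetra for 100 s before and after a 90 min exposure at 37 °C to 0.1, 1, 10 and 100 µM (final, 0.5% DMSO). Donor-specific points of departure came from hierarchical Bayesian Hill fits to vehicle-normalised beat frequency, decay-to-rise ratio or peak frequency. A 5% change served as threshold, except for peak frequency, where it was a 95% loss.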

For assay [7], the system named is 1368. The assay is described as above. Summed up: as §2
The test system of assay [8] is 1434. Described as above. Summed up:
as §2

Assay [9] has as its system 1565. Described as above. A digest of the protocol: as §2
The test system of assay [10] is 30171. Described as above. A digest of the protocol:
as §2

Consider `O=C(O)C(F)(F)C(F)(F)C(F)(F)C(F)(F)C(F)(F)C(F)(F)C(F)(F)C(F)(F)Cl` [9-Chloro-perfluorononanoic_acid], for which the POD vs vehicle in the assay with 1083 is more than 100 µM; in the assay with 11235 [1], 2.23 µM; in the assay with 1309 it was 84.3 µM; in the assay with 1368 [2] it was more than 100 µM; with 1392, more than 100 µM; in the assay on 1434 [3], 10.9 µM. The POD vs vehicle with 1516 is 14.9 µM; in the assay on 1518, more than 100 µM; in the assay on 1531, more than 100 µM; in the assay with 1535 it was 39.9 µM; in the assay on 1565 [4], more than 100 µM; with 20032 it was 44.8 µM. Besides, the POD vs vehicle with 20084 was more than 100 µM; with 30145 it was more than 100 µM; in the assay with 30171 [5], 6.24 µM; in the assay on 11235 [6] it was more than 100 µM; in the assay on 1368 [7], more than 100 µM; in the assay with 1434 [8] it was more than 100 µM. In addition, the POD vs vehicle in the assay on 1565 [9] and with 30171 [10] was more than 100 µM in each case.
Take `O=C(O)C(F)(F)C(F)(F)C(F)F` [2,2,3,3,4,4-Hexafluorobutanoic_acid]: the POD vs vehicle with 1083, with 11235 [1], in the assay with 1309, with 1368 [2], in the assay with 1392 and in the assay with 1434 [3] was more than 100 µM each time. Moreover, the POD vs vehicle with 1516, in the assay with 1518, in the assay on 1531, in the assay on 1535, in the assay on 1565 [4] and with 20032 was more than 100 µM in each case. Also, the POD vs vehicle with 20084, in the assay with 30145, with 30171 [5], with 11235 [6], in the assay with 1368 [7] and in the assay with 1434 [8] was more than 100 µM throughout. For the same compound, the POD vs vehicle with 1565 [9] and in the assay with 30171 [10] was more than 100 µM throughout.
With `O=C(O)C(F)(F)C(F)(F)C(F)(F)C(F)(F)C(F)(F)C(F)(F)C(F)(F)C(F)(F)F` [Perfluorononanoic_acid], the POD vs vehicle in the assay on 1083 is more than 100 µM; in the assay on 11235 [1] it was 2.8 µM; in the assay on 1309, 35.2 µM; in the assay on 1368 [2] it was more than 100 µM; in the assay with 1392 it was more than 100 µM; in the assay on 1434 [3], 20 µM. Further, the POD vs vehicle in the assay on 1516 was 20.4 µM; in the assay with 1518 it was 51.1 µM; in the assay with 1531, 40.2 µM; in the assay on 1535, 31.8 µM; in the assay with 1565 [4] it was more than 100 µM; in the assay with 20032, 27.9 µM. Moreover, the POD vs vehicle in the assay on 20084 is more than 100 µM; in the assay on 30145 it was more than 100 µM; in the assay on 30171 [5], 7.86 µM; in the assay with 11235 [6], more than 100 µM; in the assay on 1368 [7], more than 100 µM; in the assay with 1434 [8] it was more than 100 µM. The POD vs vehicle in the assay with 1565 [9] and with 30171 [10] was more than 100 µM each time.
Take `O=S(=O)(O)C(F)(F)C(F)(F)C(F)(F)C(F)(F)C(F)(F)C(F)(F)F` [Perfluorohexanesulfonic_acid]: the POD vs vehicle was more than 100 µM in the assay on 1083; 26.5 µM with 11235 [1]; 78.1 µM in the assay with 1309; more than 100 µM with 1368 [2]; more than 100 µM in the assay with 1392; 63.6 µM with 1434 [3]. Moreover, the POD vs vehicle in the assay with 1516 was 17.6 µM; with 1518, more than 100 µM; in the assay with 1531, 24.5 µM; with 1535, 43.4 µM; in the assay on 1565 [4], 81.7 µM; in the assay on 20032 it was 84.5 µM. For the same compound, the POD vs vehicle with 20084 is more than 100 µM; in the assay on 30145 it was more than 100 µM; in the assay on 30171 [5], 46.1 µM; in the assay on 11235 [6] it was more than 100 µM; in the assay with 1368 [7], more than 100 µM; in the assay on 1434 [8] it was more than 100 µM. Further, the results for the POD vs vehicle with 1565 [9] and in the assay with 30171 [10] were more than 100 µM and 21.2 µM, respectively.
As to `O=C(O)C(F)(F)C(F)(F)C(F)(F)C(F)(F)C(F)(F)C(F)(F)C(F)(F)C(F)(F)C(F)(F)C(F)(F)F` [Perfluoroundecanoic_acid], the POD vs vehicle with 1083 is more than 100 µM; in the assay with 11235 [1], 0.395 µM; in the assay on 1309, more than 100 µM; in the assay with 1368 [2], more than 100 µM; in the assay on 1392 it was more than 100 µM; with 1434 [3], more than 100 µM. The POD vs vehicle was 1.19 µM with 1518; more than 100 µM with 1531; more than 100 µM in the assay with 1535; more than 100 µM in the assay with 1565 [4]; more than 100 µM in the assay on 20032; more than 100 µM in the assay on 20084. Moreover, the POD vs vehicle was more than 100 µM in the assay with 30145; 0.96 µM with 30171 [5]; more than 100 µM with 11235 [6]; more than 100 µM in the assay with 1368 [7]; more than 100 µM in the assay with 1434 [8]; more than 100 µM in the assay with 1565 [9]. In addition, in the assay on 30171 [10], the POD vs vehicle stood at 4.57 µM.
